Test results: the NIST ThermoML archive (doi:10.1021/je050006+)

Tests used:
[1] = excess molar enthalpy (molar enthalpy of mixing); xn = mol fraction of the nth substance listed; conditions: 101.3 kPa, Liquid
[2] = xn = mol fraction of the nth substance listed; conditions: 101.3 kPa, Liquid

C=C1CCC2CC1C2(C)C (stereo not drawn) [β-pinene] + CCCO
Conditions	excess molar enthalpy [kcal/mol]	mass density [kg/m3]	speed of sound [m/s]
[1], 283.15 K, x1 = 0.067	0.0146	–	–
[1], 283.15 K, x1 = 0.135	0.0304	–	–
[1], 283.15 K, x1 = 0.263	0.0564	–	–
[1], 283.15 K, x1 = 0.38	0.0755	–	–
[1], 283.15 K, x1 = 0.488	0.0891	–	–
[1], 283.15 K, x1 = 0.585	0.0963	–	–
[1], 283.15 K, x1 = 0.677	0.0994	–	–
[1], 283.15 K, x1 = 0.764	0.097	–	–
[1], 283.15 K, x1 = 0.855	0.086	–	–
[1], 283.15 K, x1 = 0.926	0.0674	–	–
[1], 283.15 K, x1 = 0.97	0.0473	–	–
[1], 298.15 K, x1 = 0.067	0.0213	–	–
[1], 298.15 K, x1 = 0.135	0.0423	–	–
[1], 298.15 K, x1 = 0.263	0.0803	–	–
[1], 298.15 K, x1 = 0.38	0.109	–	–
[1], 298.15 K, x1 = 0.488	0.129	–	–
[1], 298.15 K, x1 = 0.585	0.14	–	–
[1], 298.15 K, x1 = 0.677	0.147	–	–
[1], 298.15 K, x1 = 0.764	0.14	–	–
[1], 298.15 K, x1 = 0.855	0.127	–	–
[1], 298.15 K, x1 = 0.926	0.0978	–	–
[1], 298.15 K, x1 = 0.97	0.0626	–	–
[1], 313.15 K, x1 = 0.067	0.0277	–	–
[1], 313.15 K, x1 = 0.135	0.0581	–	–
[1], 313.15 K, x1 = 0.263	0.11	–	–
[1], 313.15 K, x1 = 0.38	0.15	–	–
[1], 313.15 K, x1 = 0.488	0.177	–	–
[1], 313.15 K, x1 = 0.585	0.192	–	–
[1], 313.15 K, x1 = 0.677	0.196	–	–
[1], 313.15 K, x1 = 0.764	0.188	–	–
[1], 313.15 K, x1 = 0.855	0.163	–	–
[1], 313.15 K, x1 = 0.926	0.124	–	–
[1], 313.15 K, x1 = 0.97	0.0791	–	–
[2], 283.15 K, x1 = 0.0505	–	818.13	1265.6
[2], 283.15 K, x1 = 0.1024	–	824.2	1272.7
[2], 283.15 K, x1 = 0.2046	–	834.58	1285.3
[2], 283.15 K, x1 = 0.3046	–	843.01	1296
[2], 283.15 K, x1 = 0.405	–	850.35	1305.5
[2], 283.15 K, x1 = 0.5035	–	856.46	1313.7
[2], 283.15 K, x1 = 0.599	–	861.68	1321.2
[2], 283.15 K, x1 = 0.7026	–	866.65	1328.8
[2], 283.15 K, x1 = 0.8026	–	871.06	1336.3
[2], 283.15 K, x1 = 0.8834	–	874.33	1342.6
[2], 283.15 K, x1 = 0.9488	–	–	1348.5
[2], 283.15 K, x1 = 0.9489	–	876.85	–
[2], 283.15 K, x1 = 0.9812	–	878.27	1352.9
[2], 298.15 K, x1 = 0.053	–	806.47	1212.9
[2], 298.15 K, x1 = 0.1036	–	812.35	1219
[2], 298.15 K, x1 = 0.2039	–	822.4	1229.7
[2], 298.15 K, x1 = 0.3038	–	830.81	1239.1
[2], 298.15 K, x1 = 0.3966	–	837.49	1246.9
[2], 298.15 K, x1 = 0.5122	–	844.67	1255.7
[2], 298.15 K, x1 = 0.6005	–	849.44	1261.8
[2], 298.15 K, x1 = 0.699	–	854.2	1268.6
[2], 298.15 K, x1 = 0.793	–	–	1275.4
[2], 298.15 K, x1 = 0.7931	–	858.43	–
[2], 298.15 K, x1 = 0.8937	–	862.59	1283.3
[2], 298.15 K, x1 = 0.9426	–	864.54	1287.9
[2], 298.15 K, x1 = 0.9834	–	866.31	1293.6
[2], 313.15 K, x1 = 0.0514	–	794.24	1160.5
[2], 313.15 K, x1 = 0.1021	–	800.04	1165.7
[2], 313.15 K, x1 = 0.2032	–	810.14	1175
[2], 313.15 K, x1 = 0.307	–	818.69	1183.4
[2], 313.15 K, x1 = 0.405	–	825.65	1190.4
[2], 313.15 K, x1 = 0.5007	–	831.57	1196.5
[2], 313.15 K, x1 = 0.6004	–	837.06	1202
[2], 313.15 K, x1 = 0.7051	–	842.2	1206.4
[2], 313.15 K, x1 = 0.7928	–	846.14	1213.3
[2], 313.15 K, x1 = 0.8931	–	850.44	1222.1
[2], 313.15 K, x1 = 0.9407	–	852.42	1225.6
[2], 313.15 K, x1 = 0.9786	–	854.11	1228.9
